Data published in patent US6060310A, “Transcription factor decoy and tumor growth inhibitor” (priority 1997, dated 2000).
pIC50: −log10 of the molar value.

What was measured:
[1] = test system: CRE-directed transcription in MCF7 cells; assay: Transient transcription assay, somatostatin Δ-71 SS-CAT reporter; format: cell-based, human; conditions: for effect on CAT activity / CRE-directed transcription: intact cells, transient transcription assay
Method: The CRE oligonucleotide successfully interfered with the CRE-directed transcription in intact cells. To analyze the effect of CRE oligonucleotide in CRE-directed transcription, a transient transcription assay was performed using a reporter plasmid, somatostatin Δ-71 (CPE-containing promoter)-CAT (chloramphenicol acetyltransferase) fusion gene (Montminy et al., Proc. Natl. Acad. Sci. 83, 6682 [1986]). MCF7 cells were transfected with 5 μg of somatostatin-chloramphenicol acetyltransferase fusion gene (Δ-71 SS-CAT plasmid) and 4 μg of CRE (i.e., the 24-mer described in Example 1) or control oligonucleotide by the use of transfection reagent N-[1-(2,3-Dioleoyloxy)propyl]-N,N,N-trimethylammonium methysulfate (DOTAP). After 5 hours, fresh medium was added, and the cells were harvested at 48 to 72 hours, then assayed for CAT activity. Some samples were also treated with forskolin (10 μM), an compound with adenyl cyclase activating properties (i.e., a compound that increases intracellular cAMP concentrations), for the final 24 hours. Cell lysates were prepared as described by Gorman (Gorman, High efficiency gene transfer into mammalian cells, DNA Cloning, Vol II, pp 143-165, IRL press, Oxford, England [1985]). Lysates (75 μg of protein) were incubated with 0.4 μCi of [^14 C]chloramphenicol, 0.53 mM acetyl-CoA, and 250 mM Tris-HCl, pH 7.8 for 90 minutes at 37° C. Under these conditions, CAT activity was linear with time. Reaction products were analyzed by thin-layer chromatography (Gorman, supra).

[2] = test system: cancer cells: MCF7, LNCaP, A549, OVCAR 8, LS174T, KB, MCF7-TH, HCT-15; assay: Cancer cell growth in vitro (cell counts); format: cell-based, human
Method: (§1) Cells (0.25-1×10^5 /well) were plated in a 6-well plate containing the growth medium at 37° C. The 24-mer-CRE palindrome oligonucleotide (i.e., as described in Example 1) or two-base mismatched control oligonucleotide (i.e., as described in Example 1) was added, one day after seeding, to duplicate wells at varying concentrations. To increase the delivery of oligonucleotides into the cell, transfection reagent DOTAP was added along with the oligonucleotides. Saline treated (untreated), DOTAP treated (0 concentration), CRE, or CRE control oligonucleotide treated cells were harvested after 4 days of treatment, and cell numbers were counted in duplicate by a Coulter Counter. […] In this figure, lines with closed circles represent cells treated with the 24-mer-CRE palindrome oligonucleotide, while lines with open boxes represent cells treated with the control, mismatch oligonucleotide.

[3] = test system: protein kinase A (PKA) in cultured ovarian cancer cells; assay: PKA activity of cell extracts by column chromatography; format: cell-based; conditions: treated versus untreated ovarian cancer cells
Method: (§2) Cultured ovarian cancer cells were treated with and without CRE decoy oligonucleotide using the methods of Example 1 below. Extracts were analyzed by column chromatography for PKA activity.

[4] = test system: HCT-15 human MDR colon carcinoma; assay: Tumor growth in vivo, HCT-15 xenograft; set-up: species or system athymic mice; conditions: 5x/week, 4 weeks
Method: HCT-15 human MDR colon carcinoma tumor cells (2×10^6 cells) were inoculated subcutaneously into the left flank of athymic mice. The CRE or control oligonucleotide was injected intraperitoneally into mice at 0.01-0.1 mg/0.1 ml saline/mouse, daily, 5×/week for 4 weeks, when tumor size reached 30-50 mg ~10 days after cell inoculation. Tumor volumes were obtained from daily measurements of the longest and shortest diameters and calculated by the formula, 4/3πr^3 where r=(length+width)/4.

[5] = test system: normal cells MCF-10A and L-132; assay: Normal cell growth in vitro (cell counts); format: cell-based, human; conditions: MCF-10A and L-132, 4 days of treatment
Method: as §1

OVCAR8 cells = assay: Cell and nuclear morphology (Giemsa, Hoechst 33258), apoptosis; format: cell-based, human; conditions: OVCAR 8
Excerpt: After staining, the whole cells were visualized under an inverted microscope at ×240. […] The nuclear morphology of cells was visualized by a fluorescence microscope (Olympus BH2) at ×2600.

[6] = test system: protein kinase A (PKA) in HS68 cells; assay: PKA activity of cell extracts by column chromatography; format: cell-based, human; conditions: treated versus untreated HS68 cells
Method: as §2

[7] = Cellular uptake of 32P-labeled oligonucleotide; format: in vitro ADME, human
Method: To examine the efficacy of cellular incorporation of the CRE oligonucleotides, we incubated ^32 P-labeled samples of CRE-palindromeoligonucleotide and control oligonucleotide with MCF7 and MCF10A cells. Cell-associated radioactivity was quantified. Within 5 hrs, about 10% of the total input oligonucleotide accumulated in the cell and the incorporation continued to rise thereafter reaching 20-25% maximum levels at 24 hr of oligonucleotide incubation. The amounts and the rates of the incorporation of oligonucleotide were similar between MCF7 and MCF10A cells and between the CRE-decoy oligonucleotide and control oligonucleotide.

[8] = test system: normal human mammary epithelial, lung epithelial and human newborn foreskin fibroblast (HS68) cell lines; assay: Growth of normal cell lines; format: cell-based
[9] = test system: CRE-protein complex (CRE DNA-binding proteins such as 43 kDa CREB); assay: Mobility shift assay of CRE DNA-protein complex formation in nuclear extracts of treated cells; format: cell-based, human; conditions: cells treated 150 nM for 2 days; MCF7, MCF10A and LNCaP; versus saline treated cells
Method: Cells were treated with saline (i.e., control cells), the CRE 24-mer (150 nM for 2 days), or a control oligonucleotide and nuclear extracts were prepared using the method of Dignam (Dignam et al., Nucleic Acid Res. 11, 1475 [1983]). The control oligonucleotide was 5'-[…]-3' (SEQ ID NO: 8), which is a copy of the CRE 24-mer with two mismatched bases included in each consensus sequence motif (i.e., it will not bind as well to transcription factors as will the consensus sequence oligonucleotide). Nuclear extracts were obtained from the cells and were analyzed by a mobility shift assay to compare the amount of CRE-protein bound complex between treated, untreated, and control samples. The DNA binding assay was performed by a method modified from that of Fried and Crothers (Fried and Crothers, Nucleic Acid Res. 9, 6506 [1981]). Briefly, nuclear extracts (10 μg protein) were pre-incubated with poly(dI-dC).cndot. poly (dI-dC) (1 μg), DTT (0.3 mM), and binding buffer (12 mM Tris pH 7.9, 2 mM MgCI2, 60 mM KCl, 0.12 mM EDTA, and 12% glycerol) with or without antiserum (2-4 μl) for 30 min at 4° C. ^32 P-labeled oligonucleotide (double-stranded CRE triplet, 5'-[…]-3'; SEQ ID NO:12) was then added and the reaction mixtures were incubated for 10 min at 37° C. The reaction mixtures were then separated on a 4% polyacrylamide gel at 200 V for 1.5 hours. The gel was dried and autoradiographed. […]

[10] = test system: bcl-2 protein in MCF-10A cells; assay: Bcl-2 protein level by western blot; format: cell-based, human; conditions: MCF-10A normal cells
Method: (§3) Bcl-2 protein levels were measured by standard western blotting techniques known in the art using Anti-bcl-2 antibody.

[11] = test system: bcl-2 protein in MCF7 cells; assay: Bcl-2 protein level by western blot; format: cell-based, human; conditions: 150 nM, 4 days
Method: as §3

[12] = summary in description, concentration not given

| Substance | effect on CAT activity / CRE-directed transcription [1] | growth inhibition ([2]; 150 nM, separate experiments) | growth inhibition [2, 12] | changes in cell morphology and apoptotic nuclei (OVCAR8 cells) | formation of the CRE-protein complex [9] | bcl-2 level [10] | bcl-2 level [11] | also measured |
| --- | --- | --- | --- | --- | --- | --- | --- | --- |
| 5'-GCTGACGTCGGCCTGACGTCAGC-3' (chemistry not given here) [SEQ ID NO:3, non-palindromic hairpin forming CRE oligonucleotide] | interfered with CRE-directed transcription | – | – | – | – | – | – | – |
| 5'-TGACGGCATGACGGCATGACGGCA-3' (chemistry not given here) | – | 30% | 30% | – | – | – | – | – |
| 5'-TGACGTCA TGACGTCA TGACGTCA-3' (TGACGTCATGACGTCATGACGTCA; chemistry not given here) [24-mer CRE oligonucleotide, transcription factor decoy] | – | – | – | appearance of apoptotic nuclei | marked decrease | did not alter | markedly reduced | PKA activity peaks (Type-1 and Type-2) [3]: no peaks; toxicity ([4]; 0.01 or 0.1 mg/mouse i.p. daily): without causing toxicity; inhibition of tumor growth ([4]; 0.01 or 0.1 mg/mouse i.p. daily, versus saline treated tumors): greater than 85%; growth of normal cells [5]: unaffected; PKA activity [6]: did not show any differences; maximum level of oligonucleotide incorporation ([7]; 24 hr of incubation): 20-25%; total input oligonucleotide accumulated in the cell ([7]; within 5 hrs): about 10%; growth of normal cell lines [8]: not affected; inhibition of the CRE-directed transcription ([1]; 4 μg oligonucleotide with 5 μg Δ-71 SS-CAT, DOTAP, versus Δ-71 CAT alone): greater than 90%; pIC50 ([2]; 4 days of treatment, with DOTAP, read-out: IC50, growth inhibition of cancer cells): 6.82 to 7.00 |
| 5'-TGCCGTCATGCCGTCATGCCGTCA-3' (chemistry not given here) [24-mer CRE-hairpin sense oligonucleotide] | strongly inhibited | 70% | 70-80% | – | – | – | – | effect on CAT activity / CRE-directed transcription ([1]; listed as SEQ ID NO:10): strong inhibition |
| 5'-TGTGGTCATGTGGTCATGTGGTCA-3' (DNA, backbone and methylation of C not given here) [reference compound] | no inhibitory effect | – | – | not observed | same or similar intensity band | no effect | no effect | tumor growth inhibitory effect ([4]; i.p. daily): no growth inhibitory effect; growth inhibitory effect ([2]; 4 days of treatment, with DOTAP): no growth inhibitory effect |
| 24-mer CRE-hairpin sense and antisense oligonucleotides in combination: two complementary hairpin-forming oligonucleotides combined, producing a cruciform structure (sense TGCCGTCATGCCGTCATGCCGTCA; antisense TGACGGCATGACGGCATGACGGCA; two hairpin-forming strands combined into cruciform structure, further chemistry not given here) | – | over 80% | over 80% | – | – | – | – | – |
